Test system: IL-1β cytokine output from THP-1s
Test: THP-1 AlphaLISA IL-1β cytokine assay
Assay type: cell-based, human
Settings: Homo sapiens, THP-1, PMA-differentiated THP-1 cells, LPS 24 hr then Nigericin 1 hour; read-out: IL-1β (IC50)
Method in brief: (§1)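 THP-1 cells, PMA-differentiated 72 h; 30 min compound pre-incubation; LPS 24 h; nigericin 1 h; 37 °C/5% CO2. Supernatants read by AlphaLISA kit. IC50 from % inhibition vs concentration, normalised to +LPS (high) and −LPS (low) controls.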

SMILES	IC50 [µM]
C=C(CC(=O)OCCCCCCCC)C(=O)OC(C)CS(C)(=O)=O (stereo not shown) [Example 19, 1-(1-(methylsulfonyl)propan-2-yl) 4-octyl 2-methylenesuccinate]	3.6

Same assay, conditions: Homo sapiens, THP-1, Table 10; assay of Biological Example 1 (THP-1); read-out: IL-1β (IC50)

SMILES	IC50 [µM]
C=C(CC(=O)O[C@H](C)CCCCCC)C(=O)O [Intermediate 8, (R)-2-methylene-4-(octan-2-yloxy)-4-oxobutanoic acid]	56.7

Same assay, conditions: Table 10; assay of Biological Example 1 (THP-1)

SMILES	IL-1β (IC50)
C=C(CC(=O)O[C@H](C)CCCCCC)C(=O)O [Intermediate 8, (R)-2-methylene-4-(octan-2-yloxy)-4-oxobutanoic acid]	improved cytokine-lowering potencies compared to dimethyl itaconate

Test system: IL-6 cytokine output from THP-1s
Test: THP-1 AlphaLISA IL-6 cytokine assay
Assay type: cell-based, human
Settings: Homo sapiens; PMA-differentiated THP-1 cells, LPS 24 hr then Nigericin 1 hour
Method in brief: as §1

SMILES	IC50 [µM]
C=C(CC(=O)OCCCCCCCC)C(=O)OC(C)CS(C)(=O)=O (stereo not shown) [Example 19, 1-(1-(methylsulfonyl)propan-2-yl) 4-octyl 2-methylenesuccinate]	1.9

Same assay, conditions: Homo sapiens; Table 10; assay of Biological Example 1 (THP-1)

SMILES	IC50 [µM]
C=C(CC(=O)O[C@H](C)CCCCCC)C(=O)O [Intermediate 8, (R)-2-methylene-4-(octan-2-yloxy)-4-oxobutanoic acid]	23.7

Same assay, conditions: Table 10; assay of Biological Example 1 (THP-1)

SMILES	IL-6 (IC50)
C=C(CC(=O)O[C@H](C)CCCCCC)C(=O)O [Intermediate 8, (R)-2-methylene-4-(octan-2-yloxy)-4-oxobutanoic acid]	improved cytokine-lowering potencies compared to dimethyl itaconate

Test system: NQO1
Test: NQO1 enzyme activation assay as a readout of NRF2 activation in THP-1 cells
Assay type: cell-based
Settings: Homo sapiens, THP-1; percentage activation at top concentration, normalised to DMF (100%) and vehicle controls
Protocol: NQO1 Enzyme Activation Assay as a Readout of NRF2 Activation in THP-1 Cellular Background
NAD(P)H dehydrogenase [quinone] […] Induction of this gene is concomitant with the inhibition of proinflammatory cytokine transcription and suppression of the inflammatory response (Kobayashi E. H. et al., 2016). The NQO1 enzyme activation activities of compounds of formula (IW-1) were determined using a cellular based NQO1 activation assay (Abcam). The NQO1 activation assay was run in differentiated THP-1 cells (a human monocyte-like cell line) as described below. All reagents described are from Sigma-Aldrich unless specified otherwise. Compounds were prepared as 10 mM DMSO stocks.
THP-1 cells were expanded as a suspension up to 80% confluence in appropriate growth medium. Cells were harvested, suspended, treated with phorbol 12-myristate 13-acetate (PMA) and plated according to the cell density required for each plate format over a 72 hr period (37° C./5% CO2).
Following 72 hrs of THP-1 cell incubation, cellular medium was removed and replaced with fresh media. Working concentrations of compounds were prepared and pre-incubated for 30 minutes (37° C./5% CO2). Compound treatment was then applied to the PMA treated THP-1 cell plate followed by LPS treatment. A ‘low’ (DMSO vehicle only) control and ‘high’ (designated concentration of dimethyl fumarate) was applied to each plate at the point of compound treatment. Cells were subsequently incubated for a 48 hr period (37° C./5% C02) after which all NQO1 assay reagents were prepared according to the manufacturer's instructions. NQO1 extraction buffer was applied to PBS washed THP-1 cells and incubated on ice for 15 minutes to prepare THP-1 lysates for the NQO1 activity assay. THP-1 lysates were diluted 1:5 with PBS and treated with a 1:1 volume of kit prepared NQO1 Reaction Buffer. Absorbance was subsequently measured kinetically on an appropriate reader over a 6 minute period.
For activation determination, the fold change in response per well was determined by first calculating the average NQO1 activation data for the vehicle control and then dividing the individual well response by the averaged NQO1 response for the vehicle control as shown below: Fold change=(Sample value)/MeanMin Where ‘Min’=vehicle control only
The relative 50% activation concentration (EC50) was determined from the resulting fold change response curve. The maximum efficacy (Emax) was reported as the percentage activation calculated at the top concentration of compound used in the titration applied. If a full curve was unattainable preventing a correct curve fit, the Emax value was extrapolated using existing curve data. All percentage activation data were normalised to the DMF and vehicle controls, meaning the Emax represents the percentage […] achieved by a compound at a particular concentration relative to that achieved by DMF (set as the ‘High’ control and therefore representative of 100% activation).

SMILES	Emax [%]
C=C(CC(=O)OC1CCC1)C(=O)OC1CCC1 [Example 43, dicyclobutyl 2-methylenesuccinate]	150
C=C(CC(=O)OCCCCCCCC)C(=O)OC [Example 42, 1-methyl 4-octyl 2-methylenesuccinate]	66
C=C(CC(=O)OCCCC)C(=O)OC1COC1 [Example 37, 4-butyl 1-(oxetan-3-yl) 2-methylenesuccinate]	105
C=C(CC(=O)OC1CCCCCCC1)C(=O)OC [Example 41, 4-cyclooctyl 1-methyl 2-methylenesuccinate]	129
C=C(CC(=O)OC1COC1)C(=O)OC1COC1 [Example 44, di(oxetan-3-yl) 2-methylenesuccinate]	217
C=C(CC(=O)OCCCCCCCC)C(=O)OCCCS(C)(=O)=O [Example 18, 1-(3-(methylsulfonyl)propyl) 4-octyl 2-methylenesuccinate]	67
C=C(CC(=O)OCCCCCCCC)C(=O)OCCOC(F)(F)F [Example 13, 4-octyl 1-(2-(trifluoromethoxy)ethyl) 2-methylenesuccinate]	45
C=C(CC(=O)OCCCCCCCC)C(=O)OC1CCC1 [Example 45, 1-cyclobutyl 4-octyl 2-methylenesuccinate]	72
C=C(CC(=O)OCCCCCCCC)C(=O)OC(C)CS(C)(=O)=O (stereo not shown) [Example 19, 1-(1-(methylsulfonyl)propan-2-yl) 4-octyl 2-methylenesuccinate]	44
C=C(CC(=O)OCCCC)C(=O)OCCC#N [Example 8, 1-(2-cyanoethyl) 4-butyl 2-methylenesuccinate]	152

Same assay, conditions: Homo sapiens; differentiated THP-1 cells, LPS, 48 hr

SMILES	EC50 [µM]
C=C(CC(=O)OC1CCC1)C(=O)OC1CCC1 [Example 43, dicyclobutyl 2-methylenesuccinate]	170
C=C(CC(=O)OCCCCCCCC)C(=O)OC [Example 42, 1-methyl 4-octyl 2-methylenesuccinate]	24.3
C=C(CC(=O)OC1CCCCCCC1)C(=O)OC [Example 41, 4-cyclooctyl 1-methyl 2-methylenesuccinate]	38.1
C=C(CC(=O)OC1COC1)C(=O)OC1COC1 [Example 44, di(oxetan-3-yl) 2-methylenesuccinate]	64.6
C=C(CC(=O)OCCCCCCCC)C(=O)OC(C)CS(C)(=O)=O (stereo not shown) [Example 19, 1-(1-(methylsulfonyl)propan-2-yl) 4-octyl 2-methylenesuccinate]	51
C=C(CC(=O)OCCCC)C(=O)OCCC#N [Example 8, 1-(2-cyanoethyl) 4-butyl 2-methylenesuccinate]	35.4

Now from value to compound:

EC50 [µM]	SMILES
21	C=C(CC(=O)OCCCC)C(=O)OC1COC1 [Example 37, 4-butyl 1-(oxetan-3-yl) 2-methylenesuccinate]
5.4	C=C(CC(=O)OCCCCCCCC)C(=O)OCCCS(C)(=O)=O [Example 18, 1-(3-(methylsulfonyl)propyl) 4-octyl 2-methylenesuccinate]
2.8	C=C(CC(=O)OCCCCCCCC)C(=O)OCCOC(F)(F)F [Example 13, 4-octyl 1-(2-(trifluoromethoxy)ethyl) 2-methylenesuccinate]
1.6	C=C(CC(=O)OCCCCCCCC)C(=O)OC1CCC1 [Example 45, 1-cyclobutyl 4-octyl 2-methylenesuccinate]

Test system: NRF2
Test: NRF2 +/-GSH activation assay (DiscoverX PathHunter NRF2 translocation kit, U2OS cells)
Assay type: cell-based
Settings: Homo sapiens, U2OS; Table 10; assay of Biological Example 5 (NRF2); read-out: EC50
Method in brief: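 PathHunter U2OS cells, plated 24 hrs, measured NRF2 nuclear translocation by enzyme-fragment complementation luminescence after 6 hours compound exposure at 37 °C. For +GSH, compound was pre-incubated 30 minutes with GSH (6 mM working stock). EC50 from % activation normalised to dimethyl fumarate high control.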

SMILES	EC50 [µM]
C=C(CC(=O)O[C@H](C)CCCCCC)C(=O)O [Intermediate 8, (R)-2-methylene-4-(octan-2-yloxy)-4-oxobutanoic acid]	20.4

Same assay, conditions: Homo sapiens, U2OS; Table 10; assay of Biological Example 5 (NRF2); read-out: Emax

SMILES	Emax [%]
C=C(CC(=O)O[C@H](C)CCCCCC)C(=O)O [Intermediate 8, (R)-2-methylene-4-(octan-2-yloxy)-4-oxobutanoic acid]	165

Test system: not listed separately
Test: Mouse pharmacokinetic study, oral administration
Assay type: in vivo
Settings: male, C57BL/6, po; mouse plasma, Example 112 dosed orally at 100 mg/kg (Intermediate 8 = metabolite), time 0.083 h; read-out: Example 112 and Intermediate 8 concentrations following oral administration
Protocol: Pharmacokinetic studies were carried out in 6-8-week-old male C57BL/6 mice having free access to food and water. Intravenous dosing was conducted at 10 mg/kg (5 mL/kg; vehicle: 10% DMSO-90% (25% HP-13-CD in water)) via tail vein injection, with sampling at 3 min, 8 min, 15 min, 30 min, 1, 2, 4, 6 and 8 hours, i.e., 9 time points in total (N=3/time point), using semi-serial bleeding for plasma. Oral compound administration, via gavage, was carried out at 100 mg/kg (10 mL/kg; vehicle: 5% DMSO-95% (0.5% HPMC+0.1% Tween 80 in water)), with sampling at 5 min, 15 min, 30 min, 1, 2, 4, 6, 8 and 24 hours, i.e., 9 time points in total (N=3/time point), using semi-serial bleeding for plasma.
For both intravenous and oral routes, the mice were restrained manually at the designated time points, with ca. 110 μL of blood being taken into K2EDTA tubes via the facial vein. Blood samples were put on ice and centrifuged to obtain plasma samples from which the concentration at each time point was measured by LC-MS/MS.

SMILES	concentration at 0.083 h [ng/mL]
C=C(CC(=O)O[C@H](C)CCCCCC)C(=O)O [Intermediate 8, (R)-2-methylene-4-(octan-2-yloxy)-4-oxobutanoic acid]	18500

Same assay, conditions: male, C57BL/6, po; mouse plasma, Example 112 dosed orally at 100 mg/kg (Intermediate 8 = metabolite), time 0.25 h; read-out: Example 112 and Intermediate 8 concentrations following oral administration

SMILES	concentration at 0.25 h [ng/mL]
C=C(CC(=O)O[C@H](C)CCCCCC)C(=O)O [Intermediate 8, (R)-2-methylene-4-(octan-2-yloxy)-4-oxobutanoic acid]	19800

Same assay, conditions: male, C57BL/6, po; mouse plasma, Example 112 dosed orally at 100 mg/kg (Intermediate 8 = metabolite), time 0.5 h; read-out: Example 112 and Intermediate 8 concentrations following oral administration

SMILES	concentration at 0.5 h [ng/mL]
C=C(CC(=O)O[C@H](C)CCCCCC)C(=O)O [Intermediate 8, (R)-2-methylene-4-(octan-2-yloxy)-4-oxobutanoic acid]	12800

Same assay, conditions: male, C57BL/6, po; mouse plasma, Example 112 dosed orally at 100 mg/kg (Intermediate 8 = metabolite), time 1 h; read-out: Example 112 and Intermediate 8 concentrations following oral administration

SMILES	concentration at 1 h [ng/mL]
C=C(CC(=O)O[C@H](C)CCCCCC)C(=O)O [Intermediate 8, (R)-2-methylene-4-(octan-2-yloxy)-4-oxobutanoic acid]	4710

Same assay, conditions: male, C57BL/6, po; mouse plasma, Example 112 dosed orally at 100 mg/kg (Intermediate 8 = metabolite), time 2 h; read-out: Example 112 and Intermediate 8 concentrations following oral administration

SMILES	concentration at 2 h [ng/mL]
C=C(CC(=O)O[C@H](C)CCCCCC)C(=O)O [Intermediate 8, (R)-2-methylene-4-(octan-2-yloxy)-4-oxobutanoic acid]	2160

Same assay, conditions: male, C57BL/6, po; mouse plasma, Example 112 dosed orally at 100 mg/kg (Intermediate 8 = metabolite), time 4 h; read-out: Example 112 and Intermediate 8 concentrations following oral administration

SMILES	concentration at 4 h [ng/mL]
C=C(CC(=O)O[C@H](C)CCCCCC)C(=O)O [Intermediate 8, (R)-2-methylene-4-(octan-2-yloxy)-4-oxobutanoic acid]	719

Same assay, conditions: male, C57BL/6, po; mouse plasma, Example 112 dosed orally at 100 mg/kg (Intermediate 8 = metabolite), time 6 h; read-out: Example 112 and Intermediate 8 concentrations following oral administration

SMILES	concentration at 6 h [ng/mL]
C=C(CC(=O)O[C@H](C)CCCCCC)C(=O)O [Intermediate 8, (R)-2-methylene-4-(octan-2-yloxy)-4-oxobutanoic acid]	614

Same assay, conditions: male, C57BL/6, po; mouse plasma, Example 112 dosed orally at 100 mg/kg (Intermediate 8 = metabolite), time 8 h; read-out: Example 112 and Intermediate 8 concentrations following oral administration

SMILES	concentration at 8 h [ng/mL]
C=C(CC(=O)O[C@H](C)CCCCCC)C(=O)O [Intermediate 8, (R)-2-methylene-4-(octan-2-yloxy)-4-oxobutanoic acid]	132

Same assay, conditions: mouse plasma, Example 112 dosed orally at 100 mg/kg (Intermediate 8 = metabolite), time 24 h

SMILES	Example 112 and Intermediate 8 concentrations following oral administration
C=C(CC(=O)O[C@H](C)CCCCCC)C(=O)O [Intermediate 8, (R)-2-methylene-4-(octan-2-yloxy)-4-oxobutanoic acid]	BQL

— patent US12390437B2, “Itaconic acid derivatives and uses thereof intreating an inflammatory disease or a disease associated with an undesirable immune response” (Sitryx Therapeutics Limited, priority 2019, dated 2025)
